# Literature values, collected in PubChem BioAssay AID1259409 (Chemical Carcinogenesis Research Information System (CCRIS), 2018).
# Test system: rodent chemically induced tumor inhibition, incidence and multiplicity
# Test: CCRIS tumor inhibitor studies
# Details: Carcinogen: N-METHYL-N-NITROSOUREA, 684-93-5, Route [Inhibitor]: ORAL, Promoter: NONE USED
compound,measurement,setting,value
CC1=C(/C=C/C(C)=C/C=C/C(C)=C/C(=O)NCCO)C(C)(C)CCC1,"tumour outcome (control, treated, inhibition, significance)","Dose [Inhibitor]: 2 MMOL/KG DIET DAILY STARTING 12 D AFTER CARCINOGEN TREATMENT THROUGH ABOUT 8 MO AFTER CARCINOGEN DOSE (STUDY DURATION:, Species: RAT, Strain/Sex: F344/MALE, Target Tissue: Type of Lesion: COLON: ADENOMA, Dose [Carcinogen]: 2.5 MG 1/WK FOR 2 WK","16/39 (41%), 12/30 (40%), 5%, not significant"
same,"tumour outcome (control, treated, inhibition, significance)","Dose [Inhibitor]: 343 MG/KG DIET DAILY STARTING 1 WK AFTER LAST CARCINOGEN TREATMENT AND CONTINUING FOR 6 MO (STUDY DURATION: 9 MO), Species: HAMSTER, Strain/Sex: SYRIAN/MALE, Target Tissue: Type of Lesion: TRACHEA: BENIGN EPITHELIAL NEOPLASM, Dose [Carcinogen]: 0.5% IN 1 ML PHOSPHATE-BUFFERED SALINE 1/WK FOR 12 WK","6/63 (10%), 6/62 (10%), 0%, not significant"
same,"tumour outcome (control, treated, inhibition, significance)","Dose [Inhibitor]: 343 MG/KG DIET DAILY STARTING 1 WK AFTER LAST CARCINOGEN TREATMENT AND CONTINUING FOR 6 MO (STUDY DURATION: 9 MO), Species: HAMSTER, Strain/Sex: SYRIAN/MALE, Target Tissue: Type of Lesion: TRACHEA: CARCINOMA, Dose [Carcinogen]: 0.5% IN 1 ML PHOSPHATE-BUFFERED SALINE 1/WK FOR 12 WK","4/63 (6%), 11/62 (18%), -200%, not significant"
same,"tumour outcome (control, treated, inhibition, significance)","Dose [Inhibitor]: 343 MG/KG DIET DAILY STARTING 1 WK AFTER LAST CARCINOGEN TREATMENT AND CONTINUING FOR 6 MO (STUDY DURATION: 9 MO), Species: HAMSTER, Strain/Sex: SYRIAN/MALE, Target Tissue: Type of Lesion: TRACHEA: EPITHELIAL NEOPLASM, Dose [Carcinogen]: 0.5% IN 1 ML PHOSPHATE-BUFFERED SALINE 1/WK FOR 12 WK","10/63 (16%), 17/62 (27%), -69%, not significant"
same,"tumour outcome (control, treated, inhibition, significance)","Dose [Inhibitor]: 343 MG/KG IN DIET DAILY FOR 6 MO STARTING 1 WK AFTER FINAL CARCINOGEN DOSE (STUDY DURATION: 9 MO), Species: HAMSTER, Strain/Sex: SYRIAN/MALE, Target Tissue: Type of Lesion: TRACHEA: BENIGN EPITHELIAL NEOPLASM, Dose [Carcinogen]: 0.5% SOLUTION FOR 5 SECOND EXPOSURE 1/WK FOR 12 WK","6/63 (10%), 6/62 (10%), 0%, not significant"
same,"tumour outcome (control, treated, inhibition, significance)","Dose [Inhibitor]: 343 MG/KG IN DIET DAILY FOR 6 MO STARTING 1 WK AFTER FINAL CARCINOGEN DOSE (STUDY DURATION: 9 MO), Species: HAMSTER, Strain/Sex: SYRIAN/MALE, Target Tissue: Type of Lesion: TRACHEA: CARCINOMA, Dose [Carcinogen]: 0.5% SOLUTION FOR 5 SECOND EXPOSURE 1/WK FOR 12 WK","4/63 (6%), 11/62 (18%), -200%, not significant"
same,"tumour outcome (control, treated, inhibition, significance)","Dose [Inhibitor]: 343 MG/KG IN DIET DAILY FOR 6 MO STARTING 1 WK AFTER FINAL CARCINOGEN DOSE (STUDY DURATION: 9 MO), Species: HAMSTER, Strain/Sex: SYRIAN/MALE, Target Tissue: Type of Lesion: TRACHEA: EPITHELIAL NEOPLASM, Dose [Carcinogen]: 0.5% SOLUTION FOR 5 SECOND EXPOSURE 1/WK FOR 12 WK","10/63 (16%), 17/62 (27%), -69%, not significant"
same,"tumour outcome (control, treated, inhibition, significance)","Dose [Inhibitor]: 686 MG/KG DIET DAILY FOR 24 WK STARTING 5 D AFTER LAST DOSE OF CARCINOGEN (STUDY DURATION: 32 WK), Species: RAT, Strain/Sex: F344/MALE, Target Tissue: Type of Lesion: COLON: SARCOMA, Dose [Carcinogen]: 0.5 MG 2/WK FOR 8 WK","5/40 (13%), 1/40 (3%), 77%, not calculated"
same,"tumour outcome (control, treated, inhibition, significance)","Dose [Inhibitor]: 686 MG/KG DIET DAILY FOR 24 WK STARTING 5 D AFTER LAST DOSE OF CARCINOGEN (STUDY DURATION: 32 WK), Species: RAT, Strain/Sex: F344/MALE, Target Tissue: Type of Lesion: COLON: TUMOR, Dose [Carcinogen]: 0.5 MG 2/WK FOR 8 WK","60%, 68%, -13%, not significant"
same,"tumour outcome (control, treated, inhibition, significance)","Dose [Inhibitor]: 686 MG/KG DIET DAILY FOR 38 WK STARTING 5 D AFTER LAST DOSE OF CARCINOGEN (STUDY DURATION: 44 WK), Species: RAT, Strain/Sex: F344/MALE, Target Tissue: Type of Lesion: COLON: MESOTHELIOMA, Dose [Carcinogen]: 0.5 MG, 2/WK FOR 6 WK STARTING 6 WK PRIOR TO AGENT TREATMENT","1/50 (2%), 2/49 (1%), 50%, not calculated"
same,"tumour outcome (control, treated, inhibition, significance)","Dose [Inhibitor]: 686 MG/KG DIET DAILY FOR 38 WK STARTING 5 D AFTER LAST DOSE OF CARCINOGEN (STUDY DURATION: 44 WK), Species: RAT, Strain/Sex: F344/MALE, Target Tissue: Type of Lesion: COLON: TUMOR, Dose [Carcinogen]: 0.5 MG 2/WK FOR 6 WK","62%, 61%, 2%, not significant"
same,"tumour outcome (control, treated, inhibition, significance)","Dose [Inhibitor]: 686 MG/KG DIET DAILY FOR 48 WK STARTING 5 D AFTER LAST DOSE OF CARCINOGEN (STUDY DURATION: 52 WK), Species: RAT, Strain/Sex: F344/MALE, Target Tissue: Type of Lesion: COLON: TUMOR, Dose [Carcinogen]: 0.5 MG 2/WK FOR 4 WK","31%, 27%, 13%, not significant"
